# Tests used:
# Assay type in all cases: in vivo
# [1] = system: Echinochloa crus-gali (ECHCG); assay: Pre-emergence herbicidal glasshouse test; settings: 250 g/ha, sprayed after one day cultivation, evaluated after 13 days
# Experimental: (§1) Seeds of a variety of test species are sown in standard soil in pots Amaranthus pa/meri (AMAPA), Amaranthus retoflexus (AMARE), Echinochloa crus-gali (ECHCG), Ipomoea hederacea (IPOHE), Setaria faberi (SETFA). After cultivation for one day (pre-emergence) or after 8 days cultivation (post-emergence) under controlled conditions in a glasshouse (at 24/16° C., day/night; 14 hours light; 65% humidity), the plants are sprayed with an aqueous spray solution derived from the formulation of the technical active ingredient in acetone/water (50:50) solution containing 0.5% Tween 20 (polyoxyethelyene sorbitan monolaurate, CAS RN 9005-64-5). Compounds are applied at 250 g/ha unless otherwise stated. The test plants are then grown in a glasshouse under controlled conditions in a glasshouse (at 24/16° C., day/night; 14 hours light; 65% humidity) and watered twice daily. After 13 days for pre and post-emergence, the test is evaluated for the percentage damage caused to the plant. The biological activities are shown in the following table on a five-point scale (5=81-100%; 4=61-80%; 3=41-60%; 2=21-40%; 1=0-20%).
# [2] = system: Amaranthus retoflexus (AMARE); assay: Pre-emergence herbicidal glasshouse test; settings: 250 g/ha, sprayed after one day cultivation, evaluated after 13 days
# Experimental: as §1
# [3] = system: Ipomoea hederacea (IPOHE); assay: Pre-emergence herbicidal glasshouse test; settings: 250 g/ha, sprayed after one day cultivation, evaluated after 13 days
# Experimental: as §1
# [4] = system: Amaranthus pa/meri (AMAPA); assay: Pre-emergence herbicidal glasshouse test; settings: 250 g/ha, sprayed after one day cultivation, evaluated after 13 days
# Experimental: as §1
# [5] = system: Echinochloa crus-gali (ECHCG); assay: Post-emergence herbicidal glasshouse test; settings: 250 g/ha, sprayed after 8 days cultivation, evaluated after 13 days
# Experimental: as §1
# [6] = system: Amaranthus retoflexus (AMARE); assay: Post-emergence herbicidal glasshouse test; settings: 250 g/ha, sprayed after 8 days cultivation, evaluated after 13 days
# Experimental: as §1
# [7] = system: Ipomoea hederacea (IPOHE); assay: Post-emergence herbicidal glasshouse test; settings: 250 g/ha, sprayed after 8 days cultivation, evaluated after 13 days
# Experimental: as §1
# [8] = system: Amaranthus pa/meri (AMAPA); assay: Post-emergence herbicidal glasshouse test; settings: 250 g/ha, sprayed after 8 days cultivation, evaluated after 13 days
# Experimental: as §1
Structure (SMILES),"percentage damage caused to the plant, ECHCG [1]","percentage damage caused to the plant, AMARE [2]","percentage damage caused to the plant, IPOHE [3]","percentage damage caused to the plant, AMAPA [4]","percentage damage caused to the plant, ECHCG [5]","percentage damage caused to the plant, AMARE [6]","percentage damage caused to the plant, IPOHE [7]","percentage damage caused to the plant, AMAPA [8]"
"ON=CCCc1nc(C(F)(F)F)cn1Cc1ncc(Cl)cn1 (single isomer, unassigned) [Compound 1.005]",1 (1=0-20%),1 (1=0-20%),1 (1=0-20%),1 (1=0-20%),1 (1=0-20%),3 (3=41-60%),2 (2=21-40%),3 (3=41-60%)
"FC(F)(F)c1cn(Cc2ncc(Cl)cn2)c(CCC=NOCC2CC2)n1 (single isomer, unassigned) [Compound 1.006]",1 (1=0-20%),5 (5=81-100%),1 (1=0-20%),2 (2=21-40%),1 (1=0-20%),3 (3=41-60%),2 (2=21-40%),3 (3=41-60%)
"CON=CCCc1nc(C(F)(F)F)cn1Cc1ncc(Cl)cn1 (single isomer, unassigned) [Compound 1.007, 3-[1-[(5-chloropyrimidin-2-yl)methyl]-4-(trifluoromethyl)-imidazol-2-yl]-N-methoxy-propan-1-imine]",2 (2=21-40%),5 (5=81-100%),5 (5=81-100%),5 (5=81-100%),1 (1=0-20%),4 (4=61-80%),3 (3=41-60%),4 (4=61-80%)
"C#CCON=CCCc1nc(C(F)(F)F)cn1Cc1ncc(Cl)cn1 (single isomer, unassigned) [Compound 1.028]",1 (1=0-20%),5 (5=81-100%),4 (4=61-80%),5 (5=81-100%),2 (2=21-40%),5 (5=81-100%),2 (2=21-40%),4 (4=61-80%)
"CCCCc1nc(C=NOC)cn1Cc1ncc(Cl)cn1 (single isomer, unassigned) [Compound 1.076, 1-[2-butyl-1-[(5-chloropyrimidin-2-yl)methyl]imidazol-4-yl]-N-methoxy-methanimine]",1 (1=0-20%),1 (1=0-20%),1 (1=0-20%),1 (1=0-20%),1 (1=0-20%),1 (1=0-20%),1 (1=0-20%),1 (1=0-20%)
O=S(=O)(CCC(F)(F)F)c1nc(C(F)F)cn1Cc1ncc(Cl)cn1 [Compound 1.009],1 (1=0-20%),1 (1=0-20%),2 (2=21-40%),1 (1=0-20%),1 (1=0-20%),1 (1=0-20%),1 (1=0-20%),1 (1=0-20%)
"FC(F)CCc1nc(C(F)(F)F)cn1Cc1ncc(Cl)cn1 [Compound 1.010, 5-chloro-2-[[2-(3,3-difluoropropyl)-4-(trifluoromethyl)-imidazol-1-yl]methyl]-pyrimidine]",4 (4=61-80%),5 (5=81-100%),5 (5=81-100%),5 (5=81-100%),4 (4=61-80%),4 (4=61-80%),4 (4=61-80%),4 (4=61-80%)
FC(F)c1cn(Cc2ncc(Cl)cn2)c(SCCC(F)(F)F)n1 [Compound 1.012],1 (1=0-20%),1 (1=0-20%),1 (1=0-20%),1 (1=0-20%),1 (1=0-20%),1 (1=0-20%),2 (2=21-40%),1 (1=0-20%)
"O=CCCc1nc(C(F)(F)F)cn1Cc1ncc(Cl)cn1 [Compound 1.013, 3-[1-[(5-chloropyrimidin-2-yl)methyl]-4-(trifluoromethyl)imidazol-2-yl]propanal]",1 (1=0-20%),5 (5=81-100%),1 (1=0-20%),2 (2=21-40%),1 (1=0-20%),1 (1=0-20%),1 (1=0-20%),1 (1=0-20%)
CCCCCc1nc(C(F)(F)F)cn1Cc1ncc(C#N)cn1 [Compound 1.015],1 (1=0-20%),4 (4=61-80%),2 (2=21-40%),4 (4=61-80%),1 (1=0-20%),2 (2=21-40%),3 (3=41-60%),1 (1=0-20%)
CCCCCc1nc(C(F)(F)F)cn1Cc1ncc(C)cn1 [Compound 1.016],1 (1=0-20%),5 (5=81-100%),2 (2=21-40%),5 (5=81-100%),1 (1=0-20%),2 (2=21-40%),2 (2=21-40%),1 (1=0-20%)
FC(F)COCCc1nc(C(F)(F)F)cn1Cc1ncc(Cl)cn1 [Compound 1.017],5 (5=81-100%),5 (5=81-100%),5 (5=81-100%),5 (5=81-100%),3 (3=41-60%),4 (4=61-80%),4 (4=61-80%),4 (4=61-80%)
COCCc1nc(C(F)(F)F)cn1Cc1ncc(Cl)cn1 [Compound 1.018],1 (1=0-20%),5 (5=81-100%),4 (4=61-80%),4 (4=61-80%),1 (1=0-20%),2 (2=21-40%),3 (3=41-60%),2 (2=21-40%)
CCCCCc1nc(C(F)(F)F)cn1Cc1ncc(Cl)cn1 [Compound 1.019],5 (5=81-100%),5 (5=81-100%),1 (1=0-20%),5 (5=81-100%),3 (3=41-60%),2 (2=21-40%),1 (1=0-20%),2 (2=21-40%)
N#CCCc1nc(C(F)(F)F)cn1Cc1ncc(Cl)cn1 [Compound 1.029],2 (2=21-40%),5 (5=81-100%),5 (5=81-100%),5 (5=81-100%),1 (1=0-20%),4 (4=61-80%),3 (3=41-60%),4 (4=61-80%)
CCCCc1nc(I)cn1Cc1ncc(Cl)cn1 [Compound 1.079],1 (1=0-20%),1 (1=0-20%),–,1 (1=0-20%),1 (1=0-20%),1 (1=0-20%),1 (1=0-20%),1 (1=0-20%)

# Source: patent US20260035359A1, “HERBICIDAL IMIDAZOLE COMPOUNDS” (SYNGENTA CROP PROTECTION AG, priority 2022, published 2026)
